From patent US20060194969A1, “4-Substituted benzimidazoles and their uses as inhibitors of gastric secretion” (priority 2002, published 2006)

Columns and labels:
[1] = test system: pentagastrin-stimulated acid secretion of the perfused rat stomach; assay: Secretion-inhibiting action on the perfused rat stomach (pentagastrin-stimulated acid secretion, intraduodenal administration in vivo); conditions: dose 1 μmol/kg i.d., anesthetized female CD rat; for inhibition in vivo at 1 µmol/kg: intraduodenal
Source text: Testing of the Secretion-Inhibiting Action on the Perfused Rat Stomach
In Table A which follows, the influence of the compounds according to the invention on the pentagastrin-stimulated acid secretion of the perfused rat stomach after intraduodenal administration in vivo is shown.
The abdomen of anesthetized rats (CD rat, female, 200-250 g; 1.5 g/kg i.m. urethane) was opened after tracheotomy by a median upper abdominal incision and a PVC catheter was fixed transorally in the esophagus and another via the pylorus such that the ends of the tubes just projected into the gastric lumen. The catheter leading form the pylorus led outward into the right abdominal wall through a side opening.
After thorough rinsing (about 50-100 ml), warm (37° C.) physiological NaCl solution was continuously passed through the stomach (0.5 ml/min, pH 6.8-6.9; Braun-Unita I). The pH (pH meter 632, glass electrode EA 147; φ=5 mm, Metrohm) and, by titration with a freshly prepared 0.01 N NaOH solution to pH 7 (Dosimat 665 Metrohm), the secreted HCl were determined in the effluent in each case collected at an interval of 15 minutes.
The gastric secretion was stimulated by continuous infusion of 1 μg/kg (=1.65 ml/h) of i.v. pentagastrin (left femoral vein) about 30 min after the end of the operation (i.e. after determination of 2 preliminary fractions). The substances to be tested were administered intraduodenally in a 2.5 ml/kg liquid volume 60 min after the start of the continuous pentagastrin infusion.
The body temperature of the animals was kept at a constant 37.8-38° C. by infrared irradiation and heat pads (automatic, stepless control by means of a rectal temperature sensor).

SMILES | melting point [°C] | inhibition in vivo at 1 µmol/kg [1] [%] | Inhibition of acid secretion (%) [1] [%]
Cc1nc2c(O[C@@H]3c4ccccc4C[C@H]3O)cc(C(=O)N(C)C)cc2n1C.O=C(O)C(=O)O (relative stereo) [Example 10, 4-(trans-2,3-Dihydro-2-hydroxy-1-indenyloxy)-6-(N,N-dimethylaminocarbonyl)-1,2-dimethyl-1H-benzimidazole Oxalate] | 144 to 145 | > 50 | 
COCC(=O)O[C@@H]1Cc2ccccc2[C@H]1Oc1cc(C(=O)N(C)C)cc2c1nc(C)n2C (relative stereo) [Example 13] |  |  | >50
Cc1nc2c(O[C@@H]3c4ccc(Cl)cc4C[C@H]3O)cc(C(=O)N(C)C)cc2n1C.O=C(O)C(=O)O (relative stereo) [Example 19, 4-(trans-5-Chloro-2,3-dihydro-2-hydroxy-1-indenyloxy)-6-(N,N-dimethylaminocarbonyl)-1,2-dimethyl-1H-benzimidazole Oxalate] | 158 to 159 | > 50 | 
CCc1cccc(C)c1COc1cc(C(=O)N(C)C)cc2c1nc(C)n2C [Example 8, 6-(N,N-Dimethylaminocarbonyl)-4-(2-ethyl-6-methyl-benzyloxy)-1,2-dimethyl-1H-benzimidazole] | 161 to 162 | > 50 | 
Cc1nc2c(O[C@H]3c4ccccc4C[C@@H]3O)cc(C(=O)N(C)C)cc2n1C.O=C(O)C(=O)O [Example 11, 4-[(1S,2S)-2,3-Dihydro-2-hydroxy-1-indenyloxy]-6-(N,N-dimethylaminocarbonyl)-1,2-dimethyl-1H-benzimidazole Oxalate] | 126 to 127 | > 50 | 
CCc1cccc(C)c1CNc1cc(C(=O)NCCO)cc2c1nc(C)n2C [Example 35, 4-(2-Ethyl-6-methyl-benzylamino)-6-(2-hydroxyethyl-aminocarbonyl)-1,2-dimethyl-1H-benzimidazole] | 200 to 201 | > 50 | 
CCc1cccc(C)c1CNc1cc(C(N)=O)cc2c1nc(C)n2C [Example 38, 4-(2-Ethyl-6-methyl-benzylamino)-1,2-dimethyl-1H-benzimidazole-6-carboxamide] | 240 to 241 | > 50 | 
CCc1cccc(C)c1CNc1cc(C(=O)N2CCCC2)cc2c1nc(C)n2C [Example 40, 4-(2-Ethyl-6-methyl-benzylamino)-1,2-dimethyl-6-(pyrrolidinocarbonyl)-1H-benzimidazole] | 126 | > 50 | 
CCc1cccc(C)c1CNc1cc(C(=O)N2CCOCC2)cc2c1nc(C)n2C [Example 41, 4-(2-Ethyl-6-methyl-benzylamino)-1,2-dimethyl-6-(morpholinocarbonyl)-1H-benzimidazole] | 229 to 231 | > 50 | 
CCc1cccc(C)c1CNc1cc(C(=O)N(C)C)cc2c1nc(COC)n2C [Example 42, 6-(N,N-Dimethylaminocarbonyl)-4-(2-ethyl-6-methyl-benzylamino)-2-methoxymethyl-1-methyl-1H-benzimidazole] | 154 | > 50 | 
COCc1nc2c(NCc3c(C)cccc3C)cc(C(=O)N(C)C)cc2n1C [Example 43, 6-(N,N-Dimethylaminocarbonyl)-4-(2,6-dimethyl-benzylamino)-2-methoxymethyl-1-methyl-1H-benzimidazole] | 156 to 157 | > 50 | 
CCc1cccc(C)c1CNc1cc(C(=O)N(C)C)cc2c1nc(C)n2C [Example 44] |  |  | >50
CCc1cccc(C)c1CNc1cc(C(=O)N(C)C)cc2c1ncn2C.Cl [Example 45, 6-(N,N-Dimethylaminocarbonyl)-4-(2-ethyl-6-methyl-benzylamino)-1-methyl-1H-benzimidazole Hydrochloride] | 183 to 184 | > 50 | 
Cc1cccc(C)c1CNc1cc(C(=O)N(C)C)cc2c1nc(C)n2C [Example 46, 6-(N,N-Dimethylaminocarbonyl)-4-(2,6-dimethyl-benzylamino)-1,2-dimethyl-1H-benzimidazole] | 142 to 143 | > 50 | 
CCc1cccc(C)c1CNc1cc(C(=O)N(C)C)cc2[nH]c(C)nc12 [Example 49, 6-(N,N-Dimethylaminocarbonyl)-4-(2-ethyl-6-methyl-benzylamino)-2-methyl-1H-benzimidazole] | 228 to 230 | > 50 | 
CNC(=O)c1cc(NCc2c(C)cccc2C)c2nc(C)n(C)c2c1 [Example 55, 4-(2,6-Dimethyl-benzylamino)-1,2-dimethyl-6-(N-methylaminocarbonyl)-1H-benzimidazole] | 252 to 253 | > 50 | 
Cc1cccc(C)c1CNc1cc(C(=O)N(C)C)cc2c1nc(C)n2COCc1ccccc1 [Example 66, 1-Benzyloxymethyl-6-(N,N-dimethylaminocarbonyl)-4-(2,6-dimethyl-benzylamino)-2-methyl-1H-benzimidazole] | 55 to 56 |  | 

SMILES | melting point [°C] | inhibition in vivo at 1 µmol/kg [1] [%] | Inhibition of acid secretion (%) [1] [%]
Cc1nc2c(NCc3c(C)cccc3C)cc(C(=O)N(C)C)cc2[nH]1 [Example 67, 6-(N,N-Dimethylaminocarbonyl)-4-(2,6-dimethyl-benzylamino)-2-methyl-1H-benzimidazole] | 203 |  | 
CNC(=O)c1cc(NCc2c(C)cccc2C)c2nc(C)[nH]c2c1 [Example 69, 4-(2,6-Dimethyl-benzylamino)-6-(N-methylaminocarbonyl)-2-methyl-1H-benzimidazole] | 298 |  | 
Cc1cccc(CO)c1CNc1cc(C(=O)N(C)C)cc2c1nc(C)n2C [Example 70, 6-(N,N-Dimethylaminocarbonyl)-4-(2-hydroxymethyl-6-methyl-benzylamino)-1,2-dimethyl-1H-benzimidazole] | 197 to 198 |  | 
Cc1cccc(C)c1CNc1cc(C2=NCCN2)cc2c1nc(C)n2C [Example 72, 6-(4,5-Dihydro-1H-imidazol-2-yl)-4-(2,6-dimethyl-benzylamino)-1,2-dimethyl-1H-benzimidazole] | 273 to 274 |  | 
Cc1cccc(C)c1CNc1cc(C2=NCCN2C)cc2c1nc(C)n2C [Example 73, 6-(4,5-Dihydro-1-methyl-1H-imidazol-2-yl)-4-(2,6-dimethyl-benzylamino)-1,2-dimethyl-1H-benzimidazole] | 118 to 119 |  | 
Cc1cccc(C)c1CNc1cc(C2=NCCO2)cc2c1nc(C)n2C [Example 74, 6-(4,5-Dihydro-oxazol-2-yl)-4-(2,6-dimethyl-benzylamino)-1,2-dimethyl-1H-benzimidazole] | 235 |  | 
Cc1cccc(C)c1CNc1cc(Br)cc2c1nc(C)n2O [Example 76, 6-Bromo-4-(2,6-dimethyl-benzylamino)-1-hydroxy-2-methyl-1H-benzimidazole] | 277 |  | 
COn1c(C)nc2c(NCc3c(C)cccc3C)cc(Br)cc21 [Example 77, 6-Bromo-4-(2,6-dimethyl-benzylamino)-1-methoxy-2-methyl-1H-benzimidazole] | 171 to 172 |  | 
CCOC(=O)c1cc(NCc2c(C)cccc2C)c2nc(C)n(OC)c2c1 [Example 78, Ethyl 4-(2,6-dimethyl-benzylamino)-1-methoxy-2-methyl-1H-benzimidazole-6-carboxylate] | 165 to 166 |  | 
COn1c(C)nc2c(NCc3c(C)cccc3C)cc(C(=O)O)cc21 [Example 79, 4-(2,6-Dimethyl-benzylamino)-1-methoxy-2-methyl-1H-benzimidazole-6-carboxylic acid] | 248 to 249 |  | 
COn1c(C)nc2c(NCc3c(C)cccc3C)cc(C(=O)N(C)C)cc21 [Example 80, 6-(N,N-Dimethylamino-carbonyl)-4-(2,6-dimethyl-benzylamino)-1-methoxy-2-methyl-1H-benzimidazole] | 128 to 129 |  | 
CC(=O)OCc1nc2c(NCc3c(C)cccc3C)cc(Br)cc2n1C [Example 81, 2-Acetoxymethyl-6-bromo-4-(2,6-dimethyl-benzylamino)-1-methyl-1H-benzimidazole] | 188 to 190 |  | 
Cc1cccc(C)c1CNc1cc(C(=O)N(C)C)cc2c1nc(CO)n2C [Example 82, 6-(N,N-Dimethylaminocarbonyl)-4-(2,6-dimethyl-benzylamino)-2-hydroxymethyl-1-methyl-1H-benzimidazole] | 171 to 172 |  | 
CCc1cccc(C)c1CNc1cc(C(=O)N(C)C)cc2c1nc(CO)n2C [Example 83, 6-(N,N-Dimethylaminocarbonyl)-4-(2-ethyl-6-methyl-benzylamino)-2-hydroxymethyl-1-methyl-1H-benzimidazole] | 138 to 141 |  | 
Cc1nnc(-c2cc(NCc3c(C)cccc3C)c3nc(C)n(C)c3c2)o1 [Example 85, 4-(2,6-Dimethyl-benzylamino)-6-(5-methyl-[1,3,4]oxadiazol-2yl)-1,2-dimethyl-1H-benzimidazole] | 256 to 257 |  | 
CCOC(=O)c1cc(OCc2ccccc2)c2nc(C3CC3)n(C)c2c1 [Example 86, Ethyl 4-benzyloxy-2-cyclopropyl-1-methyl-1H-benzimidazole-6-carboxylate] | 120 |  | 
